Results from patent publication US20250052751A1, “COMPOSITIONS AND METHODS FOR DIAGNOSING AUTOIMMUNE AQUAPORINOPATHY” (The Regents of the University of California, priority 2023, published 2025).

Experiments:
[1] = test system: Foxn1cre-AQP4^fl/fl mice; test: CNS autoimmunity by direct peptide immunization; assay type: in vivo, mouse
[2] = test system: WT, RAG1^−/−, TCRa^−/− and JHT recipient mice; test: Adoptive transfer of Th17-polarized peptide-specific T cells, clinical and histologic CNS disease; assay type: in vivo, mouse
Description: FIGS. 5A-5B. Pathogenic AQP4-specific Th17 cells induce sustained CNS autoimmune disease in T cell-deficient mice. (FIG. 5A) Th17-polarized AQP4 p133-149-specific T cells from AQP4−/− mice were transferred into WT, T cell- and B cell-deficient (T cell-/B cell-, RAG1^−/−), T cell-deficient (T cell-, TCRa^−/−) and B cell-deficient (B cell-, JHT) recipient mice then scored for clinical disease. Donor Th17-polarized MOG p35-55-specific T cells were transferred into WT recipient mice as a control. Results are representative of four experiments (n=5 per group). (FIG. 5B) Recipient mice were evaluated for histologic evidence of meningeal and CNS parenchymal inflammation (H&E). Results are representative of two experiments (2-4 mice/group/time-point/experiment).
CNS autoimmune disease induction and analysis. For adoptive induction of CNS disease with primary lymphocytes, mice were immunized s.c. with 100 μg AQP4 or MOG peptides in CFA containing 400 μg M. tuberculosis H37Ra (Difco Laboratories). After 10-12 days, lymph node cells were cultured with 15 μg/ml antigen for 3 days with 20 ng/ml IL-23 and 10 ng/ml IL-6, under Th17 polarizing conditions. 2×10^7 cells were injected i.v. into naïve recipients, which then received 200 ng B. pertussis toxin (Ptx) (List Biological) i.p. on days 0 and 2. Clinical scores: 0=no disease, 1=tail tone loss, 2=impaired righting, 3=severe paraparesis or paraplegia, 4=quadraparesis, and 5=moribund or death.
For induction of CNS disease by I-A^b:AQP4 tet-sorted cells targeted cells, primary lymph node cells from AQP4 or WT mice were restimulated with […] antigen and irradiated splenocytes every 10 days. Percent tetramer binding was monitored by flow cytometry. In preparation for adoptive transfer, cells were washed and cultured with 1:10 T cell-to-irradiated splenocytes under polarizing conditions for 3 days. CD4^+ cells were negatively sorted using magnetic beads (Miltenyi). 5×10^6 were transferred to TCRa^−/− recipients. 200 ng Ptx was given on days 0 and 2.
Histopathology. Brain, spinal cord, optic nerve, kidney and muscle tissue samples were fixed in 10% neutral-buffered formalin, paraffin-embedded, sectioned and stained with H&E. Meningeal and parenchymal inflammatory lesions and areas of demyelination were assessed in a blinded manner as described (39).

[3] = test system: CD4^+ T cells; test: I-A^b:peptide tetramer binding by flow cytometry after peptide immunization; assay type: cell-based, mouse
Experimental: FIGS. 4A-4B. Negative selection of AQP4 p133-149-reactive T cells is bypassed partially in mice deficient in thymic AQP4 expression. (FIG. 4A) AQP4^−/− WT, Foxn1cre-AQP4^fl/fl, Aire^−/−, or Foxn1cre-Fezf2^fl/fl mice were immunized s.c. with peptides indicated. Peptide-specific proliferation of draining lymph node cells was measured by 3H-thymidine incorporation (mean±SEM, representative of five experiments). Comparisons within the five experiments for p133-149 at […]: WT vs. AQP4^−/− (p=0.008), WT vs. Foxn1cre-AQP4^fl/fl (p=0.008). (FIG. 4B) Ten days after peptide immunization, CD4^+ T cells from draining lymph nodes were analyzed for I-A^b: peptide tetramer binding by flow cytometry. Each data point represents the frequency (mean±SEM) of CD4^+ T cells bound to cognate antigen-tetramer in a single mouse. […] For p133-149: WT vs. Aire^−/− (p=0.9), WT vs. Foxn1cre-Fezf2^fl/fl (p=0.3). For p202-218: WT vs. Foxn1cre-AQP4^fl/fl (p=0.3), WT vs. Aire^−/− (p=0.06).
Flow cytometry. For analysis of tetramer binding, AQP4 p133-149, p202-218, IRBP p277-289 and hCLIP p87-101 IA^b tetramers conjugated to PE or APC were provided by the National Institute of Allergy and Infectious Diseases Tetramer Core Facility at Emory University. Lymphocytes were coincubated with 1 mg/ml tetramer conjugated to PE or APC for 2 hours at room temperature, washed and enriched using anti-PE magnetic microbeads (Miltenyi) over a magnetic column. Binding to hCLIP tetramer was used as a negative control. Dead cells were excluded using Live/Dead fixable Aqua Dead Cell Stain Kit (Invitrogen), lineage negative cells were excluded using antibodies to CD11b (M1/70), B220 (RA3-6B2) and CD8 (53-6.7) and positive cells were selected using antibodies to CD3 (145-2C11) and CD4 (RM4.5). 123count eBeads (Invitrogen) were used with unenriched and enriched samples for quantification of the frequency of tet^+CD4^+ T cells (total number of tet^+CD4+ T cells divided by total CD4^+ T cells per mouse). For figures showing tetramer staining, flow cytometry of the unenriched cells are shown. For analysis of GFP^+ T cells, mice were perfused with PBS, and the CNS was dissected, minced, digested with collagenase and DNase I (Roche), and isolated over a Ficoll gradient as described previously (39). Live CD4^+ cells were analyzed with a viability stain (Near-IR), and antibodies to CD11b, B220, CD8 and CD4. Apoptosis was analyzed separately using the same antibody staining, followed by Annexin V and 7-AAD staining in Annexin V binding buffer (BioLegend) per manufacturer's instructions. Cells were quantified using 123count eBeads.

[4] = donor Th17 cells from AQP4^−/− mice, recipient WT and JHT mice
[5] = AQP4^−/− mice compared with the other strains, cognate I-A^b:peptide tetramer
[6] = Foxn1cre-AQP4^fl/fl (thymic AQP4-deficient) mice compared with WT mice

| Sequence | CNS autoimmunity by immunization [1] | CNS autoimmunity after transfer of tet^+-sorted T cells ([2]; I-A^b:AQP4 p133-149 tet^+-sorted T cells from immunized AQP4^−/− mice) | clinical and histologic CNS disease after transfer of peptide-specific Th17 cells ([2]; WT recipient mice) | onset of paralysis after transfer [2, 4] [days] | time from onset to complete recovery [2, 4] [days] | clinical and histologic CNS disease after transfer of peptide-specific Th17 cells ([2]; recipient RAG1^−/− and TCRa^−/− mice) | CNS inflammation (H&E) ([2]; recipient WT and JHT mice, day 21) | frequency of CD4^+ tet^+ T cells [3, 5] | frequency of CD4^+ tet^+ T cells [3, 6] | frequency of CD4^+ tet^+ T cells ([3]; Foxn1cre-AQP4^fl/fl mice compared with AQP4^−/− mice) |
| --- | --- | --- | --- | --- | --- | --- | --- | --- | --- | --- |
| LYLVTPPSVVGGLGVT [AQP4 p133-149] | resistant to CNS autoimmunity | transferred CNS autoimmunity to WT mice | capable of inducing paralysis and CNS inflammation in WT mice | ~7 | 4 to 5 | persistent paralysis and CNS inflammation | no longer evident after recovery | significantly elevated in AQP4^−/− mice | significantly elevated in comparison to AQP4 p133-149-specific T cells in WT mice | significantly lower than in AQP4^−/− mice |
| LFAINYTGASMNPARSF [AQP4 p202-218] |  |  | capable of inducing paralysis and CNS inflammation in WT mice |  |  |  |  | elevated in AQP4^−/− mice in comparison to other strains | did not permit significant restoration |  |
